Results taken from patent publication EP0288055B1, “Use of ODC inhibitors, dacarbazine, and interferon, in the treatment of malignant melanoma” (MERRELL DOW PHARMACEUTICALS INC., priority 1987, dated 1988).

Tested on: B16 melanoma
Experiment: Effect on the growth of B16 melanoma in mice (tumor weight at sacrifice)
Assay type: in vivo
Conditions: for Tumor Weight (g) (Mean ± S.E.): B16 melanoma cells (1 x 10^5 cells/animal) S.C., tumors weighed on day 18, DFMO 2% in drinking water day 1-18, DTIC 6.25 mg/Kg i.p. once daily day 1-15, IFN 1000 units/animal S.C. alternate days day 2-18; for % Inhibition: inhibition of tumor weight vs control on day 18, same dosing as for tumor weight
Excerpt: EFFECT OF A COMBINATION OF α-DIFLUOROMETHYLORNITHINE (DFMO), DACARBAZINE (DTIC) AND α-INTERFERON (IFN) ON THE GROWTH OF B16 MELANOMA IN MICE

SMILES	Tumor Weight (g) (Mean ± S.E.)	% Inhibition [%]
CN(C)N=Nc1[nH]cnc1C(N)=O [DTIC, 5-(3,3-Dimethyl-1-triazenyl)-1H-imidazole-4-carboxamide]	3.2 ± 0.63	35.0
NCCC[C@](N)(C(=O)O)C(F)F [DFMO, α-difluoromethyl ornithine]	1.02 ± 0.15	86.0
